Data on 1 compound can be found in patent US20120070442A1, “METHODS AND COMPOSITIONS FOR TREATING CANCER” (The Regents of the University of Colorado, a body corporate, priority 2007, published 2012).

The test relates to NSCLC. Kind of test: Clinical response and survival of NSCLC patients treated with gefitinib. The class given is in vivo, human.

Excerpt: After appropriate approval from the institution and written informed consent for comprehensive use of molecular and pathologic analysis was received from each patient, NSCLC specimens were formalin-fixed, paraffin-embedded at Tokyo Medical University, Tokyo, Japan. Information on gender, age, histology, cigarette use, response, and survival was obtained for each patient. Tumor specimens were microdissected under stereoscopic microscopy (LEICA MZ12, Leica Microsystems, Wetzlar, Germany). DNA was extracted from tumor cells with the DNeasy Tissue Kit (Qiagen, Valencia, Calif.).
For all tests, a level of P<0.05 was considered statistically significant. Fisher's exact test for count data was used to analyze proportions among the factors studied. […] In this case, response or stable disease was considered a positive outcome while progressive disease was considered negative. The Kaplan-Meier method was used to estimate the probability of survival as a function of time. […] Significant differences between survival curves were analyzed using the log-rank test. Multivariate analysis of the relative importance of the factors to survival was performed using the Cox proportional-hazards method.
Each sample was analyzed in triplicate on a quantitation run. The ratio of miR-128b to CFTR DNA copies was determined. […]

On to `COc1cc2ncnc(Nc3ccc(F)c(Cl)c3)c2cc1OCCCN1CCOCC1` [Gefitinib, N-(3-chloro-4-fluoro-phenyl)-7-methoxy-6-(3-morpholin-4-ylpropoxy)quinazolin-4-amine], for which the “survival after initiation of gefitinib therapy” value was determined as 23.3 months (NSCLC patients with deletion of miR-128b by DNA copy) and 10.7 months (NSCLC patients without deletion of miR-128b by DNA copy).
